The values below come from patent US6359144B1, “Combinatorial libraries of bicyclic guanidine derivatives and compounds therein” (Lion Bioscience AG, priority 1997, dated 2002).

T1 sequence (Q9R0C9 whole entry): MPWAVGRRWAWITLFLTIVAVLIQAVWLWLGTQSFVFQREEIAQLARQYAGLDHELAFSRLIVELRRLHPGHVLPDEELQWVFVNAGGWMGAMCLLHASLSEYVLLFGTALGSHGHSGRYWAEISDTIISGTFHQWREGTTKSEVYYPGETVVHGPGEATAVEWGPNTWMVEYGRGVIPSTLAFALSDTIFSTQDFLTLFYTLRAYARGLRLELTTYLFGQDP

The first assay addresses T1, σ receptor (Rattus norvegicus, UniProt Q9R0C9).
T1 construct: can be performed with particulate membranes prepared using a modification of the method described in Pasternak et al; tissue Rockland (Gilbertsville, Pa.); host or cells: rat brain minus cerebellum, crude particulate membranes
Nature of the assay: σ receptor radio-receptor binding assay. Conditions: 17 additional individual compounds, Table 11. The text has this:
Additionally, such compounds can be tested in a σ receptor assay. Ligands for the σ receptor can be useful as antipsychotic agents, as described in Abou-Gharbia et al., Annual Reports in Medicinal Chemistry, 28:1-10 (1993).
Radio-receptor assays, such as those whose results are shown in Examples IV, V and VI, below, can be performed with particulate membranes prepared using a modification of the method described in Pasternak et al., Mol. Pharmacol. 11:340-351 (1975), which is incorporated herein by reference. Rat brains frozen in liquid nitrogen can be obtained from Rockland (Gilbertsville, Pa.). The brains are thawed, the cerebella removed and the remaining tissue weighed. Each brain is individually homogenized in 40 ml Tris-HCl buffer (50 mM, pH 7.4, 4° C.) and centrifuged (Sorvall® RC5C SA-600: Du Pont, Wilmington, Del.) (16,000 rpm) for 10 minutes. The pellets are resuspended in fresh Tris-HCl buffer and incubated at 37° C. for 40 minutes. Following incubation, the suspensions are centrifuged as before, the resulting pellets resuspended in 100 volumes of Tris buffer and the suspensions combined. Membrane suspensions are prepared and used in the same day.
Binding assays are carried out in polypropylene tubes, each tube containing 0.5 ml of membrane suspension. 8 nM of ^3H-[D-Ala^2,Me-Phe^4,Gly-ol^5]enkephalin (DAMGO) (specific activity=36 Ci/mmol, 160,000 cpm per tube; which can be obtained from Multiple Peptide Systems, San Diego, Calif., through NIDA drug distribution program 271-90-7302) and 80 μg/ml of bicyclic guanidine, individual or as a mixture and Tris-HCl buffer in a total volume of 0.65 ml. Assay tubes are incubated for 60 mins. at 25° C. The reaction is terminated by filtration through GF-B filters on a Tomtec harvester (Orange, Conn.). The filters are subsequently washed with 6 ml of Tris-HCl buffer, 4° C. Bound radioactivity is counted on a Pharmacia Biotech Betaplate Liquid Scintillation Counter (Piscataway, N.J.) and expressed in cpm. To determine inter- and intra-assay variation, standard curves in which ^3H-DAMGO is incubated in the presence of a range of concentrations of unlabeled DAMGO (0.13-3900 nM) are generally included in each plate of each assay (a 96-well format). Competitive inhibition assays are performed as above using serial dilutions of the bicyclic guanidines, individually or in mixtures.
As opposed to this μ receptor selective assay, which can be carried out using ^3H-DAMGO as radioligand, as described above, assays selective for κ receptors can be carried out using [^3H]-U69,593 (3 nM, specific activity 62 Ci/mmol) as radioligand. Assays selective for δ opiate receptors can be carried out using tritiated DSLET ([D-Ser^2, D-Leu^5]-threonine-enkephalin) as radioligand. Assays selective for the σ opiate receptor can use radiolabeled pentazocine as ligand.
The IC50 is the midpoint of a concentration-inhibition curve. `CCCC[C@H]1CN=C2N(CC)[C@@H](Cc3ccccc3)CN21` [Nle/Phe/acetic acid] came in with an IC50 of 214 nM.

On to `CCN1C2=NCC(Cc3ccccc3)N2CC1CC1CCCCC1` (stereo not drawn) [Phe/Cha/acetic acid], for which the IC50 was 52 nM.

In turn, `CC(C)(C)CCN1C2=NC[C@H](Cc3ccccc3)N2C[C@@H]1Cc1ccccc1` [Phe/Phe/(tert-butyl)acetic acid] gave a concentration for half-maximal inhibition (IC50) of 112 nM.

`CC(C)CCN1C2=NC[C@H](Cc3ccccc3)N2C[C@@H]1Cc1ccccc1` [Phe/Phe/isovaleric acid]: the IC50 amounted to 156 nM.

With `CCN1C2=NC[C@H](Cc3ccccc3)N2C[C@@H]1Cc1ccc(OC)cc1` [Phe/Tyr(Me)/acetic acid], the IC50 was found to be 69 nM.

With `CCN1C2=NC[C@H](Cc3ccccc3)N2C[C@H]1C1CCCCC1` [Phe/chg/acetic acid], the IC50 came out at 119 nM.

`CCN1C2=NCC(Cc3ccccc3)N2CC1Cc1ccc(Cl)cc1` (stereo not drawn) [Phe/pCl-Phe/acetic acid] gave an IC50 of 60 nM.

`CCN1C2=NC[C@H](Cc3ccccc3)N2C[C@H]1Cc1ccc(Cl)cc1` [Phe/pCl-phe/acetic acid] gave an IC50 of 127 nM.

Turning to `CCN1C2=NC[C@H](Cc3ccccc3)N2C[C@@H]1Cc1ccc(F)cc1` [Phe/pF-Phe/acetic acid], the IC50 is 215 nM.

For `CCN1C2=NC[C@H](Cc3ccccc3)N2C[C@H]1Cc1ccc(F)cc1` [Phe/pF-phe/acetic acid], the IC50 is 242 nM.

With `CCN1C2=NC[C@H](Cc3ccccc3)N2C[C@@H]1Cc1ccc(I)cc1` [Phe/pI-Phe/acetic acid], the IC50 was 65 nM.

The same assay, now with this note: 24 individual compounds, Table 10.
Take `COc1ccc(C[C@H]2CN3C(=NC[C@H]3C3CCCCC3)N2CCCC2CCCCC2)cc1` [compound 2]: the IC50 was found to be 585 nM.

In the case of `COc1ccc(C[C@H]2CN3C(=NC[C@@H]3C3CCCCC3)N2CCCC2CCCCC2)cc1` [compound 3], the half-inhibitory concentration (IC50) turned out to be 23 nM.

As for `COc1ccc(C[C@H]2CN3C(=NC[C@@H]3C)N2CCCC2CCCCC2)cc1` [compound 4], the IC50 is 52 nM.

With `CC(C)C[C@@H]1CN2C(=NC[C@@H]2C)N1CCCC1CCCCC1` [compound 7], the IC50 came to 530 nM.

With `CC(C)C[C@@H]1CN2C(=NC[C@@H]2C2CCCCC2)N1CCCC1CCCCC1` [compound 9], the 50% inhibitory concentration (IC50) was 13 nM.

In turn, `C1CCC(CCCN2C3=NC[C@@H](C4CCCCC4)N3C[C@@H]2C2CCCCC2)CC1` [compound 11] displayed an IC50 of 405 nM.

`C1CCC(CCCN2C3=NC[C@H](C4CCCCC4)N3C[C@@H]2C2CCCCC2)CC1` [compound 12]: the IC50 turned out to be 210 nM.

`COc1ccc(CC2CN3C(=NCC3C)N2CCC23CC4CC(CC(C4)C2)C3)cc1` (stereo not drawn) [compound 13]: the IC50 was 235 nM.

Compound `COc1ccc(CC2CN3C(=NCC3C3CCCCC3)N2CCC23CC4CC(CC(C4)C2)C3)cc1` (stereo not drawn) [compound 15] yielded an IC50 of 256 nM.

`COc1ccc(CC2CN3C(=NCC3C)N2CCC23CC4CC(CC(C4)C2)C3)cc1` (stereo not drawn) [compound 16]: the IC50 was 1080 nM.

Take `CC(C)CC1CN2C(=NCC2C)N1CCC12CC3CC(CC(C3)C1)C2` (stereo not drawn) [compound 19]: the half-inhibitory concentration (IC50) came to 974 nM.

In turn, `CC(C)CC1CN2C(=NCC2C2CCCCC2)N1CCC12CC3CC(CC(C3)C1)C2` (stereo not drawn) [compound 21] displayed a half-maximal inhibitory concentration (IC50) of 124 nM.

A further assay deals with T2, κ-opioid receptor (Rattus norvegicus, UniProt P34975).
T2 construct: can be performed with particulate membranes prepared using a modification of the method described in Pasternak et al; tissue Rockland (Gilbertsville, Pa.); host or cells: rat brain minus cerebellum, crude particulate membranes
T2 sequence (P34975 whole entry): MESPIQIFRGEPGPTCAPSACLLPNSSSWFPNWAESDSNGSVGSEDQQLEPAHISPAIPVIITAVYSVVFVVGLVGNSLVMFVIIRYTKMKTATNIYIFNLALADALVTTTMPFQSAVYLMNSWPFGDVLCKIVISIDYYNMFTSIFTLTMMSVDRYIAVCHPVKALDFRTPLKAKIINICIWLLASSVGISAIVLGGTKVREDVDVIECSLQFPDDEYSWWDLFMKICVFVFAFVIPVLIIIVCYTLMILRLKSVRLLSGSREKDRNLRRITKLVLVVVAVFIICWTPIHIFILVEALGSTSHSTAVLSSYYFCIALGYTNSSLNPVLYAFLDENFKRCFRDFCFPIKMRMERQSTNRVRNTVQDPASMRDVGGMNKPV
Kind of assay: κ-opioid receptor radio-receptor binding assay ([3H]-U69,593). The following applies: 24 individual compounds, Table 9; read-out: IC50.
For the compound `CC(C)C[C@@H]1CN2C(=NC[C@@H]2C)N1CCCC1CCCCC1` [compound 7], the IC50 was determined as 5440 nM.

Turning to `CC(C)C[C@@H]1CN2C(=NC[C@@H]2C2CCCCC2)N1CCCC1CCCCC1` [compound 9], the half-maximal inhibitory concentration (IC50) is 3740 nM.

Staying with this assay, now noted: IC50, 24 individual compounds, Table 9.
`COc1ccc(CC2CN3C(=NCC3C)N2CCC23CC4CC(CC(C4)C2)C3)cc1` (stereo not drawn) [compound 13] displayed an IC50 of 1520 nM.

For `COc1ccc(CC2CN3C(=NCC3C3CCCCC3)N2CCC23CC4CC(CC(C4)C2)C3)cc1` (stereo not drawn) [compound 15], the 50% inhibitory concentration (IC50) was 4920 nM.

`COc1ccc(CC2CN3C(=NCC3C)N2CCC23CC4CC(CC(C4)C2)C3)cc1` (stereo not drawn) [compound 16] showed a half-maximal inhibitory concentration (IC50) of 238 nM.

As for `CC(C)CC1CN2C(=NCC2C)N1CCC12CC3CC(CC(C3)C1)C2` (stereo not drawn) [compound 19], the IC50 came out at 3640 nM.

On to `CC(C)CC1CN2C(=NCC2C2CCCCC2)N1CCC12CC3CC(CC(C3)C1)C2` (stereo not drawn) [compound 21], for which the concentration for half-maximal inhibition (IC50) stood at 1210 nM.
